Source: patent US7456192B2, “3β-amino azabicyclooctane heteroaromatic amid derivatives preparation method and therapeutic uses thereof” (Pierre Fabre Medicament, priority 2001, dated 2008)
Structures can show the parent of a compound that is named as a salt. Where two headings read alike, the source gives them in different places. Marks after values point to notes of the source that are not given here.

Key:
[1] = system: methylphenidate-induced behavior; experiment: Antagonism of methylphenidate-induced behavior in rats (chewing inhibition, normalization); format: in vivo, rat
Procedure: The compounds were tested in vivo (Table II) to measure their ability to antagonize methylphenidate-induced behavior in rats. […] Colpaert J. Pharmacol. Exp. Ther. 267, 181 (1993). This test characterizes the antipsychotic activity in a more in-depth manner than apomorphine effect antagonism, the test conventionally used.

[2] = Cataleptic activity in rats, compound alone without methylphenidate; details: rat, in vivo
[3] = molecular target: T1, D2 type central dopaminergic receptor (Homo sapiens, UniProt P14416); experiment: biochemical
[4] = molecular target: T1, D2 type central dopaminergic receptor; details: radioligand 3H-YM-09151-2
catalepsy = experiment: Cataleptic activity in rats, compound alone without methylphenidate; details: rat, i.p.; 3 or 5 animals
[5] = Rattus norvegicus, ip, read-out: Chewing inhibition ED50
[6] = Rattus norvegicus, ip, read-out: Normalization ED50
[7] = Rattus norvegicus, po, read-out: Chewing inhibition ED50
[8] = Rattus norvegicus, po, read-out: Normalization ED50
[9] = ip, rat, i.p., 3 or 5 animals, read-out: Chewing inhibition ED50
[10] = ip, rat, i.p., 3 or 5 animals, read-out: Normalization ED50

T1 sequence (P14416 whole entry): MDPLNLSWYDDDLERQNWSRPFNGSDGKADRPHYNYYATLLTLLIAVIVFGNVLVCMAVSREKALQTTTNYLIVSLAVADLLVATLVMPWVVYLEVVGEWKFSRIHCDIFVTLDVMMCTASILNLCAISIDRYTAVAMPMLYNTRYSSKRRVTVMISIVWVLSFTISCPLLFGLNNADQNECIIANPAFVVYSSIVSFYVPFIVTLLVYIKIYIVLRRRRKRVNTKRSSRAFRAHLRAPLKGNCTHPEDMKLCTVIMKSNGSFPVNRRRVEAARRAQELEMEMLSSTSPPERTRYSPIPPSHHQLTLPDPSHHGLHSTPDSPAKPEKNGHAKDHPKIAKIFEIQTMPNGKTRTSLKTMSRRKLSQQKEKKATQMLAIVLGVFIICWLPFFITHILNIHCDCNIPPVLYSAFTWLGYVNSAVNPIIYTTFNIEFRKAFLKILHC

Row | SMILES | ED50 [1, 5] | ED50 [1, 6] | ED50 ([2]; ip) | Ki [3] | also measured
1 | CSc1c(C(=O)N[C@@H]2C[C@H]3CC[C@@H](C2)N3Cc2ccccc2)sc2ncccc12 [Example 2, 3-Methylsulfanylthieno[2,3-b]pyridine-2-carboxylic acid (8-benzyl-8-azabicyclo[3.2.1]oct-3β-yl)amide hydrochloride] | 0.08 mg/kg | 0.56 mg/kg | 1.8 mg/kg | 0.447 nM | –
2 | COc1c(C(=O)N[C@@H]2C[C@H]3CC[C@@H](C2)N3Cc2ccccc2)oc2cccnc12 [Example 4, 3-Methoxyfuro[3,2-b]pyridine-2-carboxylic acid (8-benzyl-8-azabicyclo[3.2.1]oct-3β-yl)amide dihydrochloride] | 0.12 mg/kg | 0.98 mg/kg | > 40 mg/kg | 2.04 nM | –
3 | COc1c(C(=O)N[C@@H]2C[C@H]3CC[C@@H](C2)N3Cc2ccc(Cl)cc2)sc2ncccc12 [Example 8, 3-Methoxythieno[2,3-b]pyridine-2-carboxylic acid [8-(4-chlorobenzyl)-8-azabicyclo[3.2.1]oct-3β-yl]amide hydrochloride] | 0.1 mg/kg | 1.3 mg/kg | > 40 mg/kg | 1.74 nM | –
4 | COc1c(C(=O)N[C@@H]2C[C@H]3CC[C@@H](C2)N3CC2CCCCC2)sc2ncccc12 [Example 10, 3-Methoxythieno[2,3-b]pyridine-2-carboxylic acid [8-cyclohexylmethyl-8-azabicyclo[3.2.1]oct-3β-yl]amide fumarate] | 1.25 mg/kg | 5 mg/kg | > 40 mg/kg | 2.57 nM | –
5 | COc1c(C(=O)N[C@@H]2C[C@H]3CC[C@@H](C2)N3Cc2ccc(F)cc2)sc2ncccc12 [Example 11, 3-Methoxythieno[2,3-b]pyridine-2-carboxylic acid [(8-(4-fluorobenzyl)-8-azabicyclo[3.2.1]oct-3β-yl)]amide hydrochloride] | 0.08 mg/kg | 0.31 mg/kg | > 40 mg/kg | 0.776 nM | –
6 | COc1c(C(=O)N[C@@H]2C[C@H]3CC[C@@H](C2)N3Cc2ccsc2)sc2ncccc12 [Example 12, 3-Methoxythieno[2,3-b]pyridine-2-carboxylic acid [8-thiophen-3-ylmethyl-8-azabicyclo[3.2.1]oct-3β-yl]amide hydrochloride] | 1.25 mg/kg | 1.25 mg/kg | > 40 mg/kg | 2.57 nM | –
7 | COc1c(C(=O)N[C@@H]2C[C@H]3CC[C@@H](C2)N3Cc2ccccc2)sc2nccnc12 [Example 27, 3-Methoxythieno[2,3-b]pyrazine-2-carboxylic acid (8-benzyl-8-azabicyclo[3.2.1]oct-3β-yl)amide hydrochloride] | – | – | – | 0.437 nM | ED50 [1, 7]: 0.27 mg/kg; ED50 [1, 8]: 0.67 mg/kg; ED50 ([2]; po): 9.5 mg/kg
8 | COc1c(C(=O)N[C@@H]2C[C@H]3CC[C@@H](C2)N3Cc2ccc(F)cc2)sc2nccnc12 [Example 29, 3-Methoxythieno[2,3-b]pyrazine-2-carboxylic acid [8-(4-fluorobenzyl)-8-azabicyclo[3.2.1]oct-3β-yl]amide hydrochloride] | – | – | – | 0.661 nM | ED50 [1, 7]: 0.08 mg/kg; ED50 [1, 8]: 0.32 mg/kg; ED50 ([2]; po): 5 mg/kg
9 | CSc1c(C(=O)N[C@@H]2C[C@H]3CC[C@@H](C2)N3Cc2ccc(Cl)cc2)sc2nccnc12 [Example 31, 3-Methylsulfanylthieno[2,3-b]pyrazine-2-carboxylic acid [8-(4-chlorobenzyl)-8-azabicyclo[3.2.1]oct-3β-yl]amide hydrochloride] | – | – | – | 2.04 nM | ED50 [1, 7]: 0.31 mg/kg; ED50 [1, 8]: 0.31 mg/kg; ED50 ([2]; po): 1.25 mg/kg
10 | CSc1c(C(=O)N[C@@H]2C[C@H]3CC[C@@H](C2)N3Cc2ccc(F)cc2)sc2nccnc12 [Example 32, 3-Methylsulfanylthieno[2,3-b]pyrazine-2-carboxylic acid [8-(4-fluorobenzyl)-8-azabicyclo[3.2.1]oct-3β-yl]amide hydrochloride] | – | – | – | 0.676 nM | ED50 [1, 7]: 0.08 mg/kg; ED50 [1, 8]: 0.31 mg/kg; ED50 ([2]; po): 1.25 mg/kg
11 | O=C(CCCN1CCC(O)(c2ccc(Cl)cc2)CC1)c1ccc(F)cc1 [Haloperidol, reference compound] | – | – | 0.32 mg/kg | – | ED50 [1, 9]: 0.08 mg/kg; ED50 [1, 10]: 0.32 mg/kg
12 | Cc1nc2n(c(=O)c1CCN1CCC(c3noc4cc(F)ccc34)CC1)CCCC2 [Risperidone, reference compound] | 0.25 mg/kg | 2.8 mg/kg | – | – | –
13 | CCN1CCCC1CNC(=O)c1cc(S(N)(=O)=O)ccc1OC (stereo not shown) [Sulpiride, reference compound] | – | – | > 160 mg/kg | – | ED50 [1, 9]: > 40 mg/kg; ED50 [1, 10]: > 40 mg/kg
14 | COc1cccc(C(=O)N[C@@H]2C[C@H]3CC[C@@H](C2)N3Cc2ccccc2)c1OC [Tropapride, reference compound] | – | – | – | – | Chewing inhibition ED50 ([1]; rat, i.p., 3 or 5 animals): 0.0059^a mg/kg; Normalization ED50 ([1]; rat, i.p., 3 or 5 animals): 0.017^a mg/kg; D2 affinity (pKi) [4]: 10.02; Catalepsy ED50 (catalepsy): 0.015^a mg/kg
